Molecular target: T1, MmMgmA (Methanothermobacter marburgensis, UniProt D9PY35)
T1 construct: gene MTBMA_c15540; full-length; E. coli BL21(DE3) from codon-optimised gene in pET28a, reconstituted with 4Fe-4S and cobalamin (structure, kinetics); also TAP-tagged from M. acetivorans (native cobamide, peptide assay)
T1 sequence (D9PY35 1-430): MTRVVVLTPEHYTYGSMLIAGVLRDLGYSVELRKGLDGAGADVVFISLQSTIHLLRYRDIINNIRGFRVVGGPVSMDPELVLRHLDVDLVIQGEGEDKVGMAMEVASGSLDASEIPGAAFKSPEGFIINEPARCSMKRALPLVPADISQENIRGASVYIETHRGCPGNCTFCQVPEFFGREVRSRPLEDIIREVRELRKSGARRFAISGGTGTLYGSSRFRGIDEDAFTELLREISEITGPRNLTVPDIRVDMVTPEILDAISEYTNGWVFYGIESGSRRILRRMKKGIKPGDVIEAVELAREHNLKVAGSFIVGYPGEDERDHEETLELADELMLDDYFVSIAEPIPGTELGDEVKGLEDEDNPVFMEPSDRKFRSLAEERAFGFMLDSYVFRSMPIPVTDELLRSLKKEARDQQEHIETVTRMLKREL
Assay: UHPLC-MS of […]'-dAH and SAH
Format: biochemical
Settings: reconstituted enzyme; 500 µM SAM, 200 µM McrA peptide, 2 mM Ti citrate, 250 mM KCl, 50 mM HEPES pH 7.5

SMILES: C[S+](CC[C@H](N)C(=O)O)C[C@H]1O[C@@H](n2cnc3c(N)ncnc32)[C@H](O)[C@@H]1O (stereo partly shown) [SAM]
- UHPLC-MS of 5'-dAH and SAH: The reconstituted enzyme was highly active
